From PubChem BioAssay AID1054 (Sanford-Burnham Center for Chemical Genomics, 2008)
“And” between values parts separate entries of the source, which are not always exact repeats. Equal entries are not always repeated. The source made the active and inactive calls. No rule for the calls is given here.

Target: Dual specificity protein phosphatase 6 (Rattus norvegicus) (UniProt Q64346)
Assay: DUSP6 phosphatase inhibition, redox-sensitive – biochemical, rat enzyme, secondary assay (AID 1054)
Conditions: recombinant MKP-3 phosphatase activity, redox-state secondary assay

Dual specificity protein phosphatase 6 (Rattus norvegicus), sequence (Q64346 whole entry, looked up): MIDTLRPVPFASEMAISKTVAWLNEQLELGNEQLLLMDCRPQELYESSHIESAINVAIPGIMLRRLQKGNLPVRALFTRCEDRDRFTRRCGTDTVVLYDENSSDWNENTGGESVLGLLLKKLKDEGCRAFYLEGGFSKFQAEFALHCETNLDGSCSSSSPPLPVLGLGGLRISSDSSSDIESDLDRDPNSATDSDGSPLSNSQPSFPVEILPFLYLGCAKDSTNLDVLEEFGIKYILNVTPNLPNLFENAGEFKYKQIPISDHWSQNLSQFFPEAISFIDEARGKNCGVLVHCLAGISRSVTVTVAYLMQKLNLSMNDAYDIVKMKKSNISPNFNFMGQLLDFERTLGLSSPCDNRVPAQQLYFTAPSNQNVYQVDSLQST

| Compound | IC50 |
| --- | --- |
| CCOC(=O)C1Nc2c(O)ccc(C)c2C2C=CCC12 (configuration not stated) | > 100 µM (inactive) |
| Cc1cc(C)c2c(c1)NC(C(=O)O)C1CC=CC21 (configuration not stated) | 46.1 µM |
| CCn1c(=O)n(Cc2ccccc2C)c(=O)n([C@@H](Cc2ccccc2)C(=O)O)c1=O | > 100 µM (inactive) |
| O=C(O)C1Nc2c(I)cccc2C2C=CCC12 (configuration not stated) | > 100 µM (inactive) |
| CCCn1c(=O)nc(NCc2ccccc2OC)[nH]c1=O | > 100 µM (inactive) |
| O=C(O)C1Nc2ccccc2C2C=CCC12 (configuration not stated) | 25.2 µM |
| Clc1ccccc1CSc1nnc(-c2ccco2)c(-c2ccco2)n1 | 24.2 µM |
| CCOC(=O)C1Nc2c(OC)cccc2C2OCCC12 (configuration not stated) | > 100 µM (inactive) |
| Cc1ccc(C)c2c1NC(C(=O)O)C1CC=CC21 (configuration not stated) | > 100 µM (inactive) |
| Cc1ccc2c(c1)C1C=CCC1C(C(=O)O)N2 (configuration not stated) | 7.92 µM |
| NC(=O)[C@H](Cc1ccccc1)n1c(=O)[nH]c(=O)n(-c2ccc(Cl)cc2)c1=O | > 100 µM (inactive) |
| CSc1nnc(-c2ccco2)c(-c2ccco2)n1 | 99.7 µM |
| O=C(O)[C@@H](O)c1ccccc1 | > 100 µM (inactive) |
| CCCn1c(=O)nc(NCCc2ccccc2)[nH]c1=O | > 100 µM (inactive) |
| CCN(CC)C(=S)c1ccc(O)c(OC)c1 | 86.6 µM |
| COc1cc(C(=S)NCc2ccc(F)c(C)c2)ccc1O | 7.53 µM |
| CCCCCCn1c(=O)nc(NCc2ccccc2OC)[nH]c1=O | > 100 µM (inactive) |
| O=C1c2ccccc2CC1Sc1nnc(-c2ccco2)c(-c2ccco2)n1 (configuration not stated) | 42 µM |
| COc1cc(C(=S)NCc2ccc(F)c(C(F)(F)F)c2)ccc1O | 1.5 µM |
| CCn1c(=O)n(Cc2ccc(N(O)O)cc2)c(=O)n([C@@H](Cc2ccccc2)C(=O)O)c1=O | > 100 µM (inactive) |
| COc1cc(C(=S)NC(C)(C)C)ccc1O | > 100 µM (inactive) |
| O=C(O)C1Nc2c(cccc2S(=O)(=O)c2ccccc2)C2C=CCC12 (configuration not stated) | 58.7 µM |
| NS(=O)(=O)c1ccc2c(c1)C1C=CCC1C(C(=O)O)N2 (configuration not stated) | > 100 µM (inactive) |

| Compound | IC50 |
| --- | --- |
| O=c1/c(=C/c2ccc(-c3cc(Cl)cc(Cl)c3)o2)sc2nc3cc(Br)cnc3n12 | 14.8 µM |
| O=S(=O)(O)c1ccc2cc(N=Nc3cc(S(=O)(=O)O)c4cccnc4c3O)ccc2c1 | 4.19 µM |
| O=c1/c(=C/c2ccccc2Cl)sc2nc3cc(Br)cnc3n12 | 2.5 µM |
| Cc1cc2nc3s/c(=C/c4ccc(-c5ccccc5C(=O)O)o4)c(=O)n3c2cc1C | 14.8 µM |
| O=C1CC(=O)N(Cc2ccco2)C(=O)N1 | > 100 µM (inactive) |
| COCCCNc1nc(=O)n(-c2ccc(C)cc2)c(=O)[nH]1 | > 100 µM (inactive) |
| COc1cc(C(=S)NC2CCCC2)ccc1O | 3.77 µM |
| Cc1cc([N+](=O)[O-])cc2c1NC(C(=O)O)C1CC=CC21 (configuration not stated) | > 100 µM (inactive) |
| O=C(O)C1Nc2c(F)cccc2C2C=CCC12 (configuration not stated) | 17.2 µM |
| O=C(O)C1Nc2c(cccc2N2CCOCC2)C2C=CCC12 (configuration not stated) | 60.1 µM |
| CCOC(=O)C1=C(C)N=c2s/c(=C\c3cc(Cl)c(OCC(=O)O)c(Cl)c3)c(=O)n2C1c1cccc(OC)c1 (configuration not stated) | 9.64 µM |
| Cc1ccc(-n2c(=O)[nH]c(=O)n([C@H](C(N)=O)C(C)C)c2=O)cc1 | > 100 µM (inactive) |
| CCCCOC(=O)c1ccc2c(c1)C1C=CCC1C(C(=O)O)N2 (configuration not stated) | 4.02 µM |
| Cc1cc(NC(=O)c2cccs2)no1 | > 100 µM (inactive) |
| CC1=C(C(=O)OC(C)C)C(c2ccc(Cl)cc2)n2c(sc(=Cc3ccc(OCC(=O)O)cc3)c2=O)=N1 (configuration not stated) | 10.1 µM |
| O=C(Cc1cccs1)Nc1ccon1 | > 100 µM (inactive) |
| c1ccc(CSc2nnc(-c3ccco3)c(-c3ccco3)n2)cc1 | 24.2 µM |
| Cc1ccc(C)n1C(Cc1ccccc1)C(=O)O (configuration not stated) | > 100 µM (inactive) |
| COc1ccc(N2Cc3cccc(C(=O)O)c3C2=O)cc1 | > 100 µM (inactive) |
| CCCCCc1nnc(NC(=O)Cc2cccs2)s1 | 17.2 µM |
| CCOC(=O)c1ccccc1OC(=O)c1ccc2c(c1)C1C=CCC1C(C(=O)O)N2 (configuration not stated) | 6.01 µM |
| O=c1/c(=C/c2ccc(-c3ccccc3[N+](=O)[O-])o2)sc2nc3cc(Br)cnc3n12 | 29.8 µM |
| Cn1c(=O)n(-c2ccccc2)c(=O)n([C@@H](Cc2ccccc2)C(N)=O)c1=O | > 100 µM (inactive) |

| Compound | IC50 |
| --- | --- |
| O=C(O)C1Nc2ccc(Br)cc2C2C=CCC12 (configuration not stated) | 12.3 µM |
| COc1ccc2c(c1)C1C=CCC1C(C(=O)O)N2 (configuration not stated) | 32 µM |
| Clc1cccc(Cl)c1COc1nnc(-c2cccs2)c(-c2cccs2)n1 | > 100 µM (inactive) |
| CCCCCCCCCCCCCCCCCCC=CCCCCCC(=O)O | > 100 µM (inactive) |
| CCC(CC)c1nnc(NC(=O)Cc2cccs2)s1 | > 100 µM (inactive) |
| Cc1ccccc1Cn1c(=O)n(-c2ccccc2)c(=O)n([C@@H](C)C(N)=O)c1=O | > 100 µM (inactive) |
| Cc1cc(NC(=O)CCc2ccc(C)o2)no1 | > 100 µM (inactive) |
| CCOC(=O)C1Nc2c(OC)cccc2C2OCCCC12 (configuration not stated) | > 100 µM (inactive) |
| CCOC(=O)C1=C(C)N=c2s/c(=C/c3cc(Cl)c(OCC(=O)O)c(OC)c3)c(=O)n2C1c1ccccc1Cl (configuration not stated) | 9.75 µM |
| O=C(O)C1Nc2c(Cl)cc(Cl)cc2C2C=CCC12 (configuration not stated) | 53 µM |
| Cc1cc(C)c2c(c1)C1C=CCC1C(C(=O)O)N2 (configuration not stated) | > 100 µM (inactive) |
| O=C(O)C1Nc2c(cccc2C(F)(F)F)C2C=CCC12 (configuration not stated) | 7.72 µM |
| COc1cc(C(=S)N2CCCCC2)ccc1O | 13.5 µM and 10.7 µM |
| Cc1cc(NC(=O)/C=C/c2cccs2)no1 | > 100 µM (inactive) |
| O=C(O)c1ccccc1-c1ccc(/C=c2\sc3nc4cc(Br)cnc4n3c2=O)o1 | 3.11 µM |
| CC(C)COC(=O)c1ccc2c(c1)C1C=CCC1C(C(=O)O)N2 (configuration not stated) | 55.8 µM |
| CCOC(=O)C1=C(c2ccccc2)N=c2sc(=Cc3cc(OC)c(OC)c(OC)c3)c(=O)n2C1c1cccs1 (configuration not stated) | > 50 µM (inactive) |
| O=C(Oc1ccc2ccccc2c1)c1ccc2c(c1)C1C=CCC1C(C(=O)O)N2 (configuration not stated) | 24.7 µM |
| COc1cccc2c1NC(C(=O)O)C1CC=CC21 (configuration not stated) | 23.1 µM and 13.1 µM |
| Cn1c(=O)n(CC(N)=O)c(=O)n(-c2ccccc2)c1=O | > 100 µM (inactive) |
| CC(C)[C@@H](C(N)=O)n1c(=O)[nH]c(=O)n(-c2ccc(Cl)cc2)c1=O | > 100 µM (inactive) |
| CCOC(=O)C1=C(C)N=c2sc(=Cc3ccc(OCC(=O)O)cc3)c(=O)n2C1c1ccc(SC)cc1 (configuration not stated) | 9.08 µM |
| CCn1c(SCC(=O)O)nc2sc3c(c2c1=O)CCCC3 | > 100 µM (inactive) |

| Compound | IC50 |
| --- | --- |
| Cc1cc(O)c2c(c1)C1C=CCC1C(C(=O)O)N2 (configuration not stated) | > 100 µM (inactive) |
| COc1cc(C(=S)NCc2ccc(Cl)c(C)c2)ccc1O | 10.5 µM |
| COc1cc(C(=S)NC2CCCCC2)ccc1O | 6.35 µM |
| O=C(O)C1Nc2cc(C(F)(F)F)ccc2S(=O)(=O)N1 (configuration not stated) | > 100 µM (inactive) |
| O=c1nc(NCCc2ccccc2)[nH]c(=O)n1-c1ccccc1 | > 100 µM (inactive) |
| COc1cc(C(=S)NCc2ccc(C)cc2C)ccc1O | 2.12 µM |
| Cc1ccc2c(c1C)NC(C(=O)O)C1CC=CC21 (configuration not stated) | 5.96 µM |
| O=C(O)C1Nc2c(Cl)cc(Cl)c(Cl)c2C2C=CCC12 (configuration not stated) | 12 µM |
| Cc1cc(NC(=O)Cc2cccs2)no1 | 13.1 µM |
| O=C(O)[C@H](O)c1ccccc1 | > 100 µM (inactive) |
| COC(=O)c1ccccc1OC(=O)c1ccc2c(c1)C1C=CCC1C(C(=O)O)N2 (configuration not stated) | 17.2 µM |
| Cc1ccc2c(c1)NC(C(=O)O)NS2(=O)=O (configuration not stated) | 56.9 µM |
| COCCCNc1nc(=O)n(-c2ccc(F)cc2)c(=O)[nH]1 | > 100 µM (inactive) |
| O=C(O)C1Nc2cc(Cl)cc(Cl)c2C2C=CCC12 (configuration not stated) | > 100 µM (inactive) |
| O=C(O)C(O)c1ccccc1 (configuration not stated) | > 100 µM (inactive) |
| Cc1cc2ccccn2c1C(=O)C(=O)O | > 100 µM (inactive) |
| Cc1ccc2c(nc3s/c(=C\c4ccc(-c5ccccc5C(=O)O)o4)c(=O)n32)c1C | 21.6 µM |
| CCCn1c(=O)nc(NCc2ccc(C)cc2)[nH]c1=O | > 100 µM (inactive) |
| CC(C)CNc1nc(=O)n(-c2ccc(F)cc2)c(=O)[nH]1 | > 100 µM (inactive) |
| O=C(O)c1ccc(-c2ccc(/C=c3\sc4nc5ccccc5n4c3=O)o2)cc1 | 6.59 µM |
| O=C(O)C1Nc2c(O)cccc2C2C=CCC12 (configuration not stated) | 10.5 µM and 14.6 µM |
| CCOC(=O)C1=C(C)N=c2sc(=Cc3ccc(OCC(=O)O)cc3)c(=O)n2C1c1ccc(Cl)cc1 (configuration not stated) | 16.8 µM |
| Cc1cc(I)cc2c1NC(C(=O)O)C1CC=CC21 (configuration not stated) | > 100 µM (inactive) |

| Compound | IC50 |
| --- | --- |
| CCOc1cc2c(c([N+](=O)[O-])c1)NC(C(=O)O)C1CC=CC21 (configuration not stated) | > 100 µM (inactive) |
| O=C(Oc1ccc(-c2ccccc2)cc1)c1cccc2c1NC(C(=O)O)C1CC=CC21 (configuration not stated) | 3.5 µM |
| O=c1/c(=C/c2ccco2)sc2nc3cc(Br)cnc3n12 | 4.56 µM |
| CCCCCC#CCC#CCC#CCC#CCCCC(=O)O | 30.4 µM |
| Cc1cc(C)c2nc3s/c(=C\c4ccc(-c5ccccc5C(=O)O)o4)c(=O)n3c2c1 | 11.7 µM |
| Cn1c(SCC(=O)O)nc2sc3c(c2c1=O)CCC3 | > 100 µM (inactive) |
| CCn1c(=O)n(C)c(=O)n([C@@H](Cc2ccccc2)C(N)=O)c1=O | > 100 µM (inactive) |
| O=c1/c(=C/c2cccc(Br)c2)sc2nc3cc(Br)cnc3n12 | > 100 µM (inactive) |
| COc1cc(C(=S)NCc2ccc(O)cc2)ccc1O | 16.1 µM |
| O=C(O)C1Nc2c(O)cc(Cl)c([N+](=O)[O-])c2C2C=CCC12 (configuration not stated) | 35.4 µM |
| Cc1ccc(O)c2c1C1C=CCC1C(C(=O)O)N2 (configuration not stated) | 86.4 µM |
| COc1cc(C(=S)N2CCCC2)ccc1O | > 100 µM (inactive) |
| O=C(O)c1ccc([N+](=O)[O-])c2c1NC(C(=O)O)C1CC=CC21 (configuration not stated) | > 100 µM (inactive) |
| COc1cc(C(=S)NCc2ccccc2)ccc1O | 4.46 µM |
| CCN1CCN(C(=S)c2ccc(O)c(OC)c2)CC1 | > 100 µM (inactive) |
| CCOC(=O)C1Nc2c(O)cccc2C2C=CCC12 (configuration not stated) | > 100 µM (inactive) |
| Cc1ccc2c(c1Cl)NC(C(=O)O)C1CC(Sc3ccccc3[N+](=O)[O-])C(Cl)C21 (configuration not stated) | 42.6 µM |
| NC(=O)[C@H](Cc1ccccc1)n1c(=O)n(Cc2ccc(Br)cc2)c(=O)n(-c2ccccc2)c1=O | > 100 µM (inactive) |
| Cc1ccc(CC(=O)Nc2cc(C)on2)cc1 | > 100 µM (inactive) |
| C#CCCCCCCCCCCCCCCCCCC | > 100 µM (inactive) |
